Results on 87 molecules are retold here after a melting point compilation (Tetko et al.; mined from patent text by program, amines drawn as free bases though some values may be those of a salt).

The melting point is the temperature of the solid-liquid transition. `Cc1nc(N)sc1CCC1CCCCC1` returned a melting point of 98 to 100 °C.

Molecule `C[C@@H](c1ccccc1)N1C[C@@H](C(N)=O)CC1=O` showed a melting point of 149 to 150 °C.

With `C[C@@H](N1CCN(c2ccc(-n3cnn(Cc4ccc(C(F)(F)F)cc4C(F)(F)F)c3=O)cc2)CC1)[C@](O)(Cn1cncn1)c1ccc(F)cc1F`, the melting point is 146 to 148 °C.

Regarding `CCNc1ccc(CN2OCC(C)(C)C2=O)c(Cl)c1`, the melting point lay in the range of 135 to 138 °C.

In the case of `CC1(C)Oc2ccc(C#N)cc2[C@@H](NC(=O)c2ccccn2)[C@@H]1O` (relative stereo), the melting point came out at 165 °C.

`CCCCCCCNC(=O)Nc1ccccc1C(=O)Nc1ccc(N(C)C)cc1` came in with a melting point of 178 to 180 °C.

On to `CN1CCN(CCCNc2ccccc2N)CC1`, for which the melting point was 65 to 67 °C.

For `O=C(O)CCn1c(=O)c2ccccc2n(CCCCN2CCC(OC(c3ccccc3)c3ccccc3)CC2)c1=O`, the melting point was in the range of 107 to 108 °C.

On to `COc1cc(C(=O)CCCN2CCC(OC(=O)c3cc(Cl)c(N)c4c3OCCC4)CC2)cc(OC)c1OC`, for which the melting point turned out to be 113 °C.

`Cc1c(-c2ccc(OCc3ccccc3)cc2)[nH]c2ccc(OCc3ccccc3)cc12` returned a melting point of 149 to 150 °C.

`CCCCCCCCCCCC(=O)OC[C@H]1OCC(=NO)[C@@H](O)[C@@H]1O`: the melting point fell in the range of 90 to 101 °C.

With `CCC(C)(C)Nc1c(NCc2cc(Cl)ccc2Cl)c(=O)c1=O`, the melting point lay in the range of 195 to 196 °C.

In the case of `CCOC(=O)c1ccc(-c2cnc3c(c2)N(C(=O)c2ccccc2)CCN3)cc1`, the melting point fell in the range of 177 to 178 °C.

`COc1cc(N)ccc1NC(=O)c1ccc(N)cc1`: the melting point fell in the range of 160 to 161 °C.

Take `COc1cccc2c1-c1ccc(NS(C)(=O)=O)cc1C(c1cccc(N(C)C(C)=O)c1)O2` (configuration not stated): the melting point is 165 to 168 °C.

`CC1CC(=O)NN=C1c1ccc2c(c1)N(C1CCCC1)C(=O)C(C)O2` (configuration not stated) gave a melting point of 220 to 223 °C.

On to `COc1ccccc1CNC(=O)c1oc(=O)c2ncccc2c1-c1ccc(C)cc1`, for which the melting point was in the range of 189 to 190 °C.

Molecule `O=S(CC(O)CCl)c1ncc(Cl)cn1` (configuration not stated) came in with a melting point of 170 °C.

In the case of `N#CC(C#N)=C1c2ccccc2-c2c(C(=O)OCCc3ccccc3)cccc21`, the melting point lay in the range of 115 to 117 °C.

`Cc1cccc2c(C(F)(F)F)c(O)ccc12` had a melting point of 83 to 84 °C.

In turn, `CS(=O)(=O)c1ccc(-c2oc(C(F)F)cc(=O)c2-c2ccc(Cl)cc2)cc1` returned a melting point of 168 to 170 °C.

The molecule `CCOC(=O)c1ccc(N2CCN(C(=O)N(CC)CC)CC2)cc1` had a melting point of 77 to 82 °C.

Molecule `O=C(CCCCl)Nc1nnc(-c2ccccc2)s1` registered a melting point of 159 to 162 °C.

Regarding `Cc1cc2cc(CN3CCCC3)cnc2cc1NC(=O)c1ccc(-c2ccsc2)cc1`, the melting point stood at 187 °C.

`COc1cc2c(cc1OC)CN(c1cc(N)c3cc(OC)c(OC)cc3n1)CC2` returned a melting point of 226 to 227 °C.

As to `O=C(O)c1cccc(Cn2cc(C3c4ccccc4C=Cc4ccccc43)c(=S)[nH]c2=S)c1`, the melting point lay within 167 to 170 °C.

`CCOC(=O)c1cc2c(s1)-n1c(C)nnc1CN=C2c1ccccc1Cl` registered a melting point of 148 to 150 °C.

On to `CN1C(=O)OCCc2cc(Nc3ncc(Cl)c(Nc4c(F)cccc4OCCO)n3)ccc21`, for which the melting point fell in the range of 199 to 201 °C.

`O=[N+]([O-])c1ccc(C2OCCc3cc4c(cc32)OCO4)cc1` (configuration not stated) came in with a melting point of 149 to 150 °C.

The molecule `CCN(CC)CCNC(=O)c1c[nH]c2ccc(I)cc2c1=O` registered a melting point of 234 to 236 °C.

Molecule `Cc1ccc2sc3nncn3c2c1C` gave a melting point of 226 to 228 °C.

`O=C(NCc1ccccc1)c1ccc2cnccc2n1` returned a melting point of 113 to 115 °C.

Consider `COC(=O)CCCCN(CCc1cc(-c2ccc(F)cc2F)ccc1OCc1ccc(-c2ccc(C(F)(F)F)cc2)cc1)Cc1ccc(C(=O)OC)cc1`, for which the melting point was > 240 °C.

In turn, `CCCCCCCCCC(=O)Nc1ccc(S(=O)(=O)Nc2nnc(C(C)(C)C)s2)cc1` had a melting point of 156 to 157 °C.

Take `CCc1c(CO)c(CO)c2n1-c1ccccc1C2`: the melting point is 131 to 133 °C.

Turning to `CCN1C(=O)C(C)(C)C(=O)N(C)c2cc(CN(CCn3ccc4oc(C)cc4c3=O)c3cccc4ncccc34)ccc21`, the melting point is 166 to 168 °C.

Take `CC(C)Cn1c(CNC(=O)OC(C)(C)C)c(-c2cccs2)c2cc(C(N)=O)ccc2c1=O`: the melting point was in the range of 248 to 250 °C.

With `CC(=O)NC(C)(C)c1ccc(CN2CCN(c3ccc(F)cc3)CC2)cc1`, the melting point was 104 to 106 °C.

`CCOC(=O)c1ccc(NC(=O)CC(C(=O)Nc2ccc(NC(=O)Nc3ccccc3C)cc2)c2ccccc2)cc1` (configuration not stated): the melting point was > 220 °C.

Take `O=C(Nc1ccccc1)c1ccc(Cn2cnc3ccccc32)cc1`: the melting point lay within 214 to 216 °C.

`COc1ccc(-c2cc(Cl)c3cc(O)ccc3c2)cc1` showed a melting point of 116 to 118 °C.

As for `CCOC(=O)NNC(=O)NCCC(=O)OC`, the melting point lay in the range of 105 to 107 °C.

The molecule `CC(=O)Nc1cnn2cnc3ccccc3c12` yielded a melting point of 256 to 258 °C.

`CNC(=O)c1ccccc1Nc1nc(Nc2cc3c(cc2OC)CCN(CC(=O)N(C)C)CC3)ncc1Br` yielded a melting point of 225 °C.

The molecule `COC(=O)CCc1ccc(S(=O)(=O)c2ccc(NC(=O)c3ccc(Cl)c(Cl)c3)cn2)cc1` gave a melting point of 165 to 166 °C.

Consider `CCOC(=O)C1=C(C)NC(C)=C(C(=O)OCC)C1c1cccc(F)c1`, for which the melting point was in the range of 149 to 150 °C.

`COC(=O)CCC/C=C(/c1cc(C)c2onc(OC)c2c1)c1cc(C)c2oc(=O)n(C)c2c1` displayed a melting point of 54 to 55 °C.

With `CCc1c(CC(=O)NCCCCCCNC(=O)Cc2ccc([N+](=O)[O-])cc2)ccc(OC)c1OC`, the melting point was in the range of 146 to 148 °C.

`CC(COc1ccc(CC(N)=O)cc1Cl)NCC(O)c1cccc(Cl)c1` (configuration not stated): the melting point fell in the range of 99 to 101 °C.

`N#CCCCCC(=NO)c1ccc(Br)cc1` displayed a melting point of 86.5 to 88 °C.

Turning to `FC(F)(F)C=NNc1c(Cl)cc(C(F)(F)F)cc1Cl`, the melting point lay in the range of 45 to 46 °C.

Regarding `Fc1ccc(NC(=S)c2ccccn2)cc1`, the melting point is 82 to 85 °C.

`Cc1ccc(N2N=C(C(N)=O)NC2c2c(F)cccc2F)cc1COCC(F)(F)C(F)(F)F` (configuration not stated) gave a melting point of 182 to 185 °C.

`CCCCCCCCCCC[C@@H](O)CC(=O)OCC(=O)c1ccc(Br)cc1` gave a melting point of 109 to 110 °C.

As to `O=C1N=CC(OCc2ccccc2)(C(F)(F)F)c2cc(Cl)ccc2N1` (configuration not stated), the melting point lay within 177 to 178 °C.

In turn, `Cc1ccc(NC(=O)C(C)C)s1` yielded a melting point of 95 to 97 °C.

On to `O=C(O)c1cccc(Oc2cccc(-c3nn(Cc4ccc(C(F)(F)P(=O)(O)O)c(Br)c4)c(=Nc4ccc(Cl)c(Cl)c4)s3)c2)c1`, for which the melting point is 210 to 215 °C.

With `O=CN1CCN(c2nc3cccccc-3n2)CC1`, the melting point was 170 to 173 °C.

With `CCCCCC(CCN1C(=O)NC2CC(=O)CC21)OC(C)=O` (configuration not stated), the melting point was in the range of 85 to 86 °C.

For `Nc1ncnc2c1ncn2OCCCOCP(=O)(O)O`, the melting point was 246 to 249 °C.

With `Cc1cn([C@@H]2C[C@H](O)[C@@H](O)[C@H]2O)c(=O)[nH]c1=O` (racemic), the melting point is 201 to 202 °C.

Regarding `CS(=O)(=O)NC(=O)CCCCBr`, the melting point was 88 to 89 °C.

`Clc1ccc(N2CCN(Cc3nc4ccccc4[nH]3)CC2)cc1`: the melting point lay in the range of 212 to 213 °C.

`Cc1ccc(Cc2c[nH]c(=S)[nH]c2=O)cn1` came in with a melting point of 240 to 241 °C.

For the molecule `COc1ccc(-c2cc3c(n2CCN(C)C)CCCC3)cc1`, the melting point was 81 to 82 °C.

As for `Cc1nc2c3c(ccn2c1C)C(=O)C(O)C(c1ccsc1)N3` (configuration not stated), the melting point was 222 to 225 °C.

Turning to `CC(=O)NCCC1CCc2ccc3nc(C(F)(F)F)oc3c21` (configuration not stated), the melting point lay within 114 to 116 °C.

Take `COc1ccc(-c2ccc3cc(OC)ccc3c2)cc1`: the melting point stood at 190 °C.

For the molecule `COc1ccc(S(=O)(=O)Nc2ccc(COc3ccc4c(c3)CCC(CN(C)C)C4)cc2)cc1` (configuration not stated), the melting point was 137 to 140 °C.

On to `Cc1cccc(Nc2cc(Cl)nc(SCC(=O)NN3CCOCC3)n2)c1C`, for which the melting point was 106 to 108 °C.

The molecule `CC(=O)N1CCc2nc(C)nc(-c3ccc(Cl)cc3)c2C1` gave a melting point of 139 to 141 °C.

The molecule `NNC1=NCCCCN1` had a melting point of 133 to 135 °C.

On to `CC(C)(C)OC(=O)Cc1c(Cl)nc(N)nc1C#N`, for which the melting point was 107 to 109 °C.

With `COC(=O)c1ccc(C(=O)NS(=O)(=O)c2ccc(C(=O)NCCc3ccccc3OC)cc2)cn1`, the melting point is 220 to 222 °C.

`CN(C(=O)OC(C)(C)C)c1cc(Oc2ccc(-c3ccccc3)cc2)ccc1[N+](=O)[O-]` showed a melting point of 166 to 167 °C.

For the molecule `CC(C)(C)Nc1c(NCc2ccncc2)c(=O)c1=O`, the melting point was 271 to 272 °C.

`CSc1nsc(NC(=O)C(C)(C)C)c1C(N)=O` gave a melting point of 142 to 143 °C.

Consider `COc1cc([N+](=O)[O-])c2nc(OCc3ccc(Cl)cc3)ccc2c1`, for which the melting point was in the range of 130 to 134 °C.

`Cc1sc(N)c(C(=O)c2ccc(Cl)cc2)c1CN(C)Cc1ccccc1` yielded a melting point of 114 to 116 °C.

`CN1C(=O)CCC2(C)C3CCC4(C)C(OC(=O)NCc5ccccc5)CCC4C3CCC12` (configuration not stated): the melting point was in the range of 216 to 217 °C.

`O=C(C[C@@H](CCCC1CCCCC1)c1nc(Cn2cncn2)no1)NO`: the melting point is 118 to 120 °C.

For `O=C(O)C1CC(=Cc2ccccc2)CC1C(=O)O` (configuration not stated), the melting point was found to be 172 °C.

As to `COC(=O)c1cc(CO)ccc1S(=O)(=O)NC(=O)Nc1nc(OC)cc(OC)n1`, the melting point was 182 to 185 °C.

In turn, `C#CCOc1ccc2c(C)cc(=O)oc2c1C(=O)C=Cc1cccc(OC)c1` showed a melting point of 154 to 156 °C.

`Cc1nc(-c2cnc3[nH]cc(C(=O)N[C@@H](C(=O)N4CC(C#N)C4)C(C)(C)C)c3n2)cn1-c1cc(F)cc(F)c1`: the melting point was 187 to 190 °C.

In turn, `CC(=O)c1c(Cl)cccc1N1CCN(CCCCOc2ccc3c(n2)NC(=O)CC3)CC1` came in with a melting point of 115 °C.

`NC1=NC(c2ccc(OC(F)F)cc2)(c2cccc(-c3cccnc3F)c2)C2=NCCCN12` (configuration not stated) had a melting point of 104 to 114 °C.
